Earlier results as cited in patent US9522161B2, “Performance enhancing composition and method of delivering nutrients” (Advanced Bio Development, Inc., priority 2010, dated 2016).
“Also recorded” adds a separate entry of the source.

How the values were obtained:
muscle = settings: ribose supplementation in rats, depending on muscle fiber type
[1] = humans, chronic high-intensity exercise, ribose supplementation
[2] = consumed orally, within two hours
[3] = not given; remark: listed apart in the source
[4] = not given; remark: listed apart in the source
[5] = not given; remark: listed apart in the source
[6] = taken orally
[7] = pilot studies and human trials
[8] = tested on: mice that have a hypoinsulinemic type of diabetes; settings: mice with hypoinsulinemic type of diabetes

## O=C[C@H](O)[C@H](O)[C@H](O)CO [Ribose]
muscle
  increase in hypoxanthine salvage: six- to eight-fold
  increase in nucleotide salvage: three- to six-fold
[1]
  time to return TAN and ATP levels to baseline: 65 to 72 h
[2]
  fraction of ribose absorbed in the intestines: 88-100%
Doses of 10 grams or more on an empty stomach
  known side effects: transient hypoglycemia; also recorded: gastrointestinal discomfort, including loose stools and diarrhea
In vivo
  ribose level that can be safely ingested: ≤ 15 g per day

## Cn1c(=O)c2c(ncn2C)n(C)c1=O [Caffeine]
[3]; after consumption
  time until elevated levels appear in the bloodstream: 15 to 45 min
[3]; post ingestion
  time of peak concentrations post ingestion: one
[3]; within three to six hours of consumption
  decrease of circulating concentrations: 50 to 75%

## CO[C@H]1[C@H](O)[C@@H](O)[C@@H](O)[C@H](O)[C@@H]1O [Pinitol]
Muscle cells
  stimulation of glucose uptake in muscle cells: 25-80%

## COC1=C(OC)C(=O)C(C/C=C(\C)CC/C=C(\C)CC/C=C(\C)CC/C=C(\C)CC/C=C(\C)CC/C=C(\C)CC/C=C(\C)CC/C=C(\C)CC/C=C(\C)CCC=C(C)C)=C(C)C1=O [CoQ10, Coenzyme Q10]
[4]; dosages of 90 to 150 mg/day
  increase in plasma concentrations: 180%
[4]; in vivo
  uptake of CoQ10 into the blood, share of the dose administered: 5 to 10%
[5]; 2,152 patients, 100 to 200 mg per day
  safety in cardiovascular-related clinical trials: safe, without any reports of toxicity or drug interactions
[5]; nausea, vomiting, diarrhea, appetite suppression, heartburn, epigastric discomfort
  share of users with gastrointestinal side effects: Less than one
[5]; over 8 months
  dosing level shown to be safe and well tolerated: ≤ 3,000 mg per day

## Nc1ncnc2c1ncn2[C@@H]1O[C@H](COP(=O)(O)OP(=O)([O-])OP(=O)([O-])O)[C@@H](O)[C@H]1O.[Na+].[Na+] [ATP disodium, adenosine triphosphate (ATP) disodium]
[6]
  duration of measurable increase in circulating ATP levels: at least six
[7]
  adverse side effects: no adverse side effects have been observed

## CO[C@H]1[C@H](O)[C@@H](O)[C@@H](O)[C@H](O)[C@@H]1O [D-pinitol]
[8]
  insulin-like effect: acute and chronic insulin-like effect
